Results as given in PMC4359082 (Nature, 2014).

How the values were obtained:
MrgprB2 = target: T1, MrgprB2 (Mus musculus, UniProt Q3KNA1); assay: Calcium imaging in HEK293 cells expressing MrgprB2; type: cell-based; conditions: HEK293 cells heterologously expressing MrgprB2
T1 sequence (Q3KNA1 1-338): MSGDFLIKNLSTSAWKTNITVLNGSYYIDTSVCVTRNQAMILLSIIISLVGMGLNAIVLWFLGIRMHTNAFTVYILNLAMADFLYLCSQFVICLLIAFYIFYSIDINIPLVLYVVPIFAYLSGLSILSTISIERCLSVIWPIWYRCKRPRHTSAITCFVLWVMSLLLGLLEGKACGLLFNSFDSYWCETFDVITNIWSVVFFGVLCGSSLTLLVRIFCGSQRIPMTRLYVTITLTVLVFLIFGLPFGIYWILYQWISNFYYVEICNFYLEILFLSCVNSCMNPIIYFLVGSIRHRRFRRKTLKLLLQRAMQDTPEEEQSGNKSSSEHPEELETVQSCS

[1] = tested on: mouse peritoneal mast cells; assay: Mouse peritoneal mast cell histamine release assay; type: cell-based; conditions: 5 minutes, room temperature; HTRF histamine assay
[2] = Drug preparation and storage: stability of solutions; type: physicochemical; conditions: solutions prepared on the day of the experiment

Row | Molecule | response of MrgprB2-HEK cells ([Ca2+]i) (MrgprB2) | histamine release from WT peritoneal mast cells (MrgprB2MUT mast cells released substantially less) [1] | stability of potency of drug solutions [2]
1 | CCN(CC)CCCC(C)Nc1ccnc2cc(Cl)ccc12 (stereo not shown) [CQ, chloroquine] | no response | – | –
2 | O=C(O)c1cn(C2CC2)c2cc(N3CCNCC3)c(F)cc2c1=O [Ciprofloxacin, ciprofloxacin] | – | induced histamine release | –
3 | COc1cc2c(cc1OC)[C@@H](Cc1cc(OC)c(OC)c(OC)c1)[N+](C)(CCCOC(=O)CC/C=C/CCC(=O)OCCC[N+]1(C)CCc3cc(OC)c(OC)cc3[C@H]1Cc1cc(OC)c(OC)c(OC)c1)CC2 (stereo partly shown) [mivacurium] | – | – | susceptible to oxidation and/or freeze-thaw effects
4 | COc1ccc(CC2c3cc(OC)c(OC)cc3CC[N+]2(C)CCC(=O)OCCCCCOC(=O)CC[N+]2(C)CCc3cc(OC)c(OC)cc3C2Cc2ccc(OC)c(OC)c2)cc1OC (stereo not shown) [Atracurium, atracurium] | – | induced histamine release | susceptible to oxidation and/or freeze-thaw effects
5 | COc1cc2c3cc1Oc1cc(ccc1O)C[C@@H]1c4c(cc(OC)c(O)c4Oc4ccc(cc4)C[C@@H]3N(C)CC2)CC[N+]1(C)C [tubocurarine] | – | – | susceptible to oxidation and/or freeze-thaw effects
6 | icatibant | – | induced histamine release | –
